Data on eight compounds can be found in patent US6297250A, “Pyrimidopyrimidine compounds” (Newcastle University Ventures Limited, priority 1997, dated 2001).

Usually IC50 stands for the concentration needed to halve the response being measured. A low value points to greater potency in that assay.

Several values for one entry are separate records, joined by “and”; a condition that tells them apart may be missing. Identical values can stand only once. Like-named read-outs stand apart in the source and are kept apart here.

For experiment [1], the system named is MCF7. Particulars: earlier experiments; cited from earlier work.
Experiment [2] concerns A549. The note with it: earlier experiments; cited from earlier work.
For experiment [3], the system named is L1210 cells. In words: Nucleoside transport inhibition assay: inhibition of 3H-thymidine uptake, with or without AGP or HSA. It is filed as cell-based, murine. Particulars: for inhibition at 1 µM: L1210, 1 μM compound; for inhibition at 10 µM: L1210, 10 μM compound; for % Inhibition of 3H-thymidine uptake, +5 mg/ml AGP: compound concentration not assignable from the table; for inhibition at 0.1 µM: L1210, 0.1 μM compound. The method, then: In vitro activity. […] For testing the compounds an established nucleoside transport assay involving measurement of thymidine uptake was adapted. Murine leukaemia L1210 cells were used in this assay as their nucleoside transport characteristics are well known. This assay for measuring thymidine uptake used a modification of the rapid mixing technique of Wohleheuter, R. […] Materials used included a transport buffer comprising 130 mM NaCl, 5 mM KC1, 1 mM MgCl, 5 mM NaH2 PO4, 10 mM glucose and 10 mM HEPES. This buffer was made up as sterile 5× concentrate and reconstituted in distilled water and adjusted to pH 7.4 immediately prior to carrying out the assay. […] The supernatant was aspirated and the cells were washed with ice-cold transport buffer and centrifuged again at 1000 rpm for 5 minutes at 4° C. The supernatant was removed and the cells were resuspended in ice-cold transport buffer to give a final cell density of 2-4×10^7 cells/mi. Cells were left on ice for 30 minutes recovery prior to starting the assay. […] The suspension was mixed well and 100 μl was layered onto 150 μl silicone oil (9:11 Dow Corning 556 (Sp.Gr. 0.98):Dow Corning 550 (Sp.Gr. 1.068) (final Sp.Gr. 1.028) overlaying 50 μl 3M KOH in 6 replicate 0.5 ml microfuge tubes. […] The tubes were immediately transferred to a microfuge (Eppendorf) and spun at 12000 rpm for 2 minutes to pellet the cells through the oil and into the KOH. The tubes were capped and the cells left to solubilise in the KOH for 1 hour. Cell number and viability for each run was determined by haemocytometer counting using trypan blue exclusion. […] The tubes were capped and cut in the oil layer such that the bottom portion (cells solubilised in KOH) fell into a 20 ml scintillation vial. 1 ml 0.25M acetic acid followed by 1 ml air was injected into the tube using a 2 ml syringe and 23-gauge needle to disperse and neutralise the KOH-solubilisedcells. 10 ml of Optiphase HiSafe™ scintillant was added and the vials capped and shaken. […] The [^14 C]:[^3 H] ratio was used to calculate the amount of non-transported contaminating [^3 H]thymidine in the extracellular space.

The subject of experiment [4] is MCF7. In words: Prevention of hypoxanthine rescue from antifolate growth inhibition (sulphorhodamine B). In kind it is cell-based. Particulars: 3 μM NU3076, 10 μM hypoxanthine. The method, then:
(§1) For example, in investigating the compound NU3076, two lung cancer cell lines: A549 and COR L23 and two breast cancer cell lines MCF7 and MDA MB231 were selected for study. All cell lines were adapted to growth in dialysed serum as previously referred to. […] Cells were exposed to varying concentrations of LY309887 in the presence or absence of 10 μM hypoxanthine, with or without 3 μM NU3076. At the end of the exposure period the cells were fixed and stained with sulphorhodamine B. Hypoxanthine protected all the cell lines from LY309887 growth inhibition.

Experiment [5] deals with A549. Described as above. The note with it: 3 μM NU3076, 10 μM hypoxanthine. In kind it is cell-based. The method, then:
as §1

[6] abbreviates: Mus musculus, +5 mg/ml AGP vs no AGP, read-out: % Reduction (of inhibition by AGP).
Setting [7] is: Mus musculus, +5 mg/ml AGP, read-out: % Inhibition of 3H-thymidine uptake, +5 mg/ml AGP.
The mark [8] stands for this setting: Mus musculus, no AGP, read-out: % Inhibition of 3H-thymidine uptake, No AGP.
The mark [9] stands for this setting: 0.1 μM compound, no AGP, 0.1 µM.

On to `OCCN(CCO)c1nc(N2CCCCC2)c2nc(N(CCO)CCO)nc(N3CCCCC3)c2n1` [NU3003, 2,6-bis(diethanolamino)-4,8-dipiperidinopyrimidopyrimidine, reference compound], for which the “Block of hypoxanthine rescue from lometerxol growth inhibition” value in experiment [1] and in experiment [2] was “blocked hypoxantine rescue” each time.
Turning to `COc1ccc(CNc2nc(N(CCO)CCO)nc3c(NCc4ccc(OC)cc4)nc(N(CCO)CCO)nc23)cc1` [NU3076, 2,6-bis (Diethanolamino)-4,8-di[(4'-methoxybenzyl)amino]pyrimidopyrimidine], the “% Inhibition of 3H-thymidine uptake, No AGP” value (from here on “% Inhibition … No AGP”) in experiment [3] (1 μM compound, no AGP, 1 µM) turned out to be 56 ± 10%. The “% Inhibition of 3H-thymidine uptake, +40 mg/ml HSA” value in experiment [3] (3 h) stood at 89 ± 10%. In addition, the inhibition at 1 µM in experiment [3] (setting [6]) came to 18%; in experiment [3] (setting [7]) it was 46 ± 8%; in experiment [3] (setting [8]), 65 ± 11%. For the same compound, the inhibition at 10 µM was 7% in experiment [3] (setting [6]), 89 ± 14% in experiment [3] (setting [7]) and 96 ± 8% in experiment [3] (setting [8]). This compound yielded an IC50 in experiment [3] (Mus musculus, L1210, no AGP) of 253 ± 75 nM. Moreover, in experiment [3] (in words), the “Effect of AGP on the inhibition of thymidine uptake” value is “no significant reduction”. Moreover, in experiment [3] (presence and absence of AGP, or of 40 mg/ml human serum albumin), the “Potency as inhibitor relative to dipyridamole” value is given as “more potent inhibitors than dipyridamole”. For the same compound, the “Prevention of hypoxanthine rescue from LY309887 growth inhibition” value in experiment [4] and in experiment [5] was “prevented hypoxanthine rescue” each time.
For the compound `CN(Cc1ccccc1)c1nc(OCCO)nc2c(N(C)Cc3ccccc3)nc(OCCO)nc12` [NU3098, 2,6-di(-2-hydroxyethoxy)-4,8-di(N-methylbenzylamino)pyrimidopyrimidine], the “% Inhibition … No AGP” value in experiment [3] (10 μM compound, no AGP, 10 µM) came to 87 ± 11%. Besides, the inhibition at 1 µM in experiment [3] (setting [8]) was found to be 44%. In addition, inhibition in experiment [3] (no AGP) was half-maximal at 1870 nM (IC50).
For the compound `COc1ccc(CNc2nc(NCCO)nc3c(NCc4ccc(OC)cc4)nc(NCCO)nc23)cc1` [NU3099, 2,6-Di-(2-hydroxyethyl)amino-4,8-di-[4-methoxybenzyl]-aminopyrimidopyrimidine], the “% Inhibition … No AGP” value in experiment [3] (1 μM compound, no AGP, 1 µM) is 52% and 62% and 65%. Moreover, the “% Inhibition of 3H-thymidine uptake, +5 mg/ml AGP” value in experiment [3] (+5 mg/ml AGP) is 30% and 35%. Further, in experiment [3] (Mus musculus, no AGP), the inhibition at 0.1 µM stood at 5%. Besides, in experiment [3] (setting [8]), the inhibition at 1 µM was found to be 54%. For the same compound, the IC50 worked out at 930 nM in experiment [3] (Mus musculus, L1210, no AGP) and 1200 nM in experiment [3] (no AGP).
As to `COc1ccc(CN(C)c2nc(OCCCO)nc3c(N(C)Cc4ccc(OC)cc4)nc(OCCCO)nc23)cc1` [NU3100, 2,6-Di-(3-hydroxypropoxy)-4,8-di-(N-[4-methoxybenzyl]-N-methyl)aminopyrimidopyrimidine], in experiment [3] (setting [8]), the inhibition at 1 µM was found to be 88%. This compound displayed an IC50 in experiment [3] (Mus musculus, L1210, no AGP) of 190 nM.
In turn, `OCCNc1nc(NCc2ccccc2)c2nc(NCCO)nc(NCc3ccccc3)c2n1` [NU3101, 2,6-Di-(2-hydroxyethylamino)-4,8-dibenzylaminopyrimidopyrimidine] registered an inhibition at 0.1 µM in experiment [3] (Mus musculus, no AGP) of 2%. In experiment [3] (setting [8]), the inhibition at 1 µM was determined as 58%.
As for `COc1ccc(CN(C)c2nc(N(CCO)CCO)nc3c(N(C)Cc4ccc(OC)cc4)nc(N(CCO)CCO)nc23)cc1` [NU3102, 2,6-bis-Diethanolamino-4,8-di-(N-[4-methoxybenzyl]-N-methyl)aminopyrimidopyrimidine], the “% Inhibition … No AGP” value in experiment [3] (setting [9]) was 20%; in experiment [3] (1 μM compound, no AGP, 1 µM) it was 57%; in experiment [3] (10 μM compound, no AGP), “insoluble”. Moreover, in experiment [3] (Mus musculus, no AGP), the inhibition at 0.1 µM is 23%. Moreover, the inhibition at 1 µM in experiment [3] (setting [8]) was 51%. In addition, the IC50 in experiment [3] (Mus musculus, L1210, no AGP) amounted to 980 nM; in experiment [3] (no AGP) it was 840 nM.
In the case of `CN(Cc1ccccc1)c1nc(OCCO)nc2c(N(C)Cc3ccccc3)nc(OCCO)nc12` [NU3103, 2,6-Di-(2-hydroxyethoxy)-4,8-di-(N-benzyl-N-methyl)aminopyrimidopyrimidine], the “% Inhibition … No AGP” value in experiment [3] (setting [9]) was 18%; in experiment [3] (1 μM compound, no AGP, 1 µM) it was 50% and 60%; in experiment [3] (10 μM compound, no AGP, 10 µM), 84%. In addition, the “% Inhibition of 3H-thymidine uptake, +5 mg/ml AGP” value in experiment [3] (+5 mg/ml AGP) was 21% and 23%. The compound further yielded an inhibition at 0.1 µM in experiment [3] (Mus musculus, no AGP) of 12%. Further, the inhibition at 10 µM in experiment [3] (setting [8]) came to 90%. Further, the IC50 in experiment [3] (no AGP) is 1010 nM and 800 nM.
